Measured values from US9611249B2, “1H-indazole-3-carboxamide compounds as glycogen synthase kinase 3 beta inhibitors” (AZIENDE CHIMICHE RIUNITE ANGELINI FRANCESCO A.C.R.A.F. …, priority 2012, dated 2017).

Legend:
Type in all cases: biochemical
c-Met kinase (h) = c-Met kinase (h) (Homo sapiens (Human), UniProt P08581); assay: Kinase selectivity panel: c-Met kinase (h); details: 10 μM in duplicate, read-out: % inhibition of control values
Description: (§1) (a) Compounds 1 and 2 were tested against a panel of 60 kinases in order to assess their selectivity. The assays were chosen taking into consideration the diversity of assay families.
(§2) Tested kinases were representative of following kinase sub-families: • protein-serine/threonine kinases; • protein-tyrosine kinases; • other kinases; and • atypical kinases.
(§3) Human recombinant kinases were incubated in the presence of specific peptide substrates plus ATP for different times (10, 15, 30, 60 or 90 minutes) at 22° C. Phosphorylated substrate was detected by LANCE or HTRF technology (CISBIO, MA, USA). The compounds were tested at 10 μM in duplicate.
(§4) The results are expressed as a percentage of inhibition of control specific activity obtained in the presence of the test compounds and are reported in the following Table 5.
(§5) (b) Compounds 3, 8, 29 and 31 were tested against the same panel of 60 kinases under the same conditions described above for compounds 1 and 2.
(§6) The results are expressed as a percent of inhibition of control specific activity obtained in the presence of the test compounds and are reported in the following Table 6.

FGFR1 kinase (h) = FGFR1 kinase (h) (Homo sapiens (Human), UniProt P11362); assay: Kinase selectivity panel: FGFR1 kinase (h); details: 10 μM in duplicate, read-out: % inhibition of control values
Description: as §1, §2, §3, §4, §5, §6

IRK (h) (InsR) = IRK (h) (InsR) (Homo sapiens (Human), UniProt P06213); assay: Kinase selectivity panel: IRK (h) (InsR); details: 10 μM in duplicate, read-out: % inhibition of control values
Chain of IRK (h) (InsR) (P06213 28-1382): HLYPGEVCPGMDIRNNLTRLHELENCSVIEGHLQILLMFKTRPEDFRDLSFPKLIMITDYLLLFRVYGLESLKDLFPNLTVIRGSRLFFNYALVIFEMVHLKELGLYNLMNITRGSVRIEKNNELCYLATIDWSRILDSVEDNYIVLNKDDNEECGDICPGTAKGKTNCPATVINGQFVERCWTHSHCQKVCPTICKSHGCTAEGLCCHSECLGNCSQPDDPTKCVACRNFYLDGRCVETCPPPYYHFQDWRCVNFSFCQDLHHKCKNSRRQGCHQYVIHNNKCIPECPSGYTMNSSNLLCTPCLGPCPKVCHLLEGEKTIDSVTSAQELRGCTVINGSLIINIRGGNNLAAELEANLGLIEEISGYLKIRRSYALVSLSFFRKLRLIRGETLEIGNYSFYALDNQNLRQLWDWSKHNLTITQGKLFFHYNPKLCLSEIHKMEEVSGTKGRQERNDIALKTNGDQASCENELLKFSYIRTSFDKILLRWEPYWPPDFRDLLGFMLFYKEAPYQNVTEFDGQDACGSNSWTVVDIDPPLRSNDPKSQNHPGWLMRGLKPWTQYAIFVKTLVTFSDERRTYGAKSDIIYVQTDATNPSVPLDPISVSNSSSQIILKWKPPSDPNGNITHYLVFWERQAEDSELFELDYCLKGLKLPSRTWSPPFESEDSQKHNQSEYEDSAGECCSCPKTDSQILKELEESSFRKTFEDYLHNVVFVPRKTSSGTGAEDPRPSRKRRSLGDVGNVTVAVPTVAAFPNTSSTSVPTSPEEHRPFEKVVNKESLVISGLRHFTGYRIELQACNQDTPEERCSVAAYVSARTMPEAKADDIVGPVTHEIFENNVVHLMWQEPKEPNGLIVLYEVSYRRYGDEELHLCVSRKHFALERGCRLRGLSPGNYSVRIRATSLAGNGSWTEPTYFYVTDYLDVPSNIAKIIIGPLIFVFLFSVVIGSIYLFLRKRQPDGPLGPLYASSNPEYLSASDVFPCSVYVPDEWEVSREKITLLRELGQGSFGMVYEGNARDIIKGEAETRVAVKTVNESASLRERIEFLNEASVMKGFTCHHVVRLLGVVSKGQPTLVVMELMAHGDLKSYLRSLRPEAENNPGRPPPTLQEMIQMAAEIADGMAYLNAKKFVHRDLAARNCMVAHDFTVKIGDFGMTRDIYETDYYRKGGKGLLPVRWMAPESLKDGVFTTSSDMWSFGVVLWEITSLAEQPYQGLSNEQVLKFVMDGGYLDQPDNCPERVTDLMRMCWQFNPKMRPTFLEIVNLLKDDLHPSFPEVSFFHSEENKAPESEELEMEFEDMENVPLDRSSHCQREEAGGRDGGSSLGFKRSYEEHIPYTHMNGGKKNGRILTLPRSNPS
Description: as §1, §2, §3, §4, §5, §6

EphB4 kinase (h) = EphB4 kinase (h) (Homo sapiens (Human), UniProt P54760); assay: Kinase selectivity panel: EphB4 kinase (h); details: 10 μM in duplicate, read-out: % inhibition of control values
Description: as §1, §2, §3, §4, §5, §6

HGK (h) (MAP4K4) = HGK (h) (MAP4K4) (Homo sapiens (Human), UniProt O95819); assay: Kinase selectivity panel: HGK (h) (MAP4K4); details: 10 μM in duplicate, read-out: % inhibition of control values
Description: as §1, §2, §3, §4, §5, §6

CK1alpha (h) = CK1alpha (h) (Homo sapiens (Human), UniProt P48729); assay: Kinase selectivity panel: CK1alpha (h); details: 10 μM in duplicate, read-out: % inhibition of control values
Description: as §1, §2, §3, §4, §5, §6

TRKA (h) = TRKA (h) (Homo sapiens (Human), UniProt P04629); assay: Kinase selectivity panel: TRKA (h); details: 10 μM in duplicate, read-out: % inhibition of control values
Chain of TRKA (h) (P04629 33-796): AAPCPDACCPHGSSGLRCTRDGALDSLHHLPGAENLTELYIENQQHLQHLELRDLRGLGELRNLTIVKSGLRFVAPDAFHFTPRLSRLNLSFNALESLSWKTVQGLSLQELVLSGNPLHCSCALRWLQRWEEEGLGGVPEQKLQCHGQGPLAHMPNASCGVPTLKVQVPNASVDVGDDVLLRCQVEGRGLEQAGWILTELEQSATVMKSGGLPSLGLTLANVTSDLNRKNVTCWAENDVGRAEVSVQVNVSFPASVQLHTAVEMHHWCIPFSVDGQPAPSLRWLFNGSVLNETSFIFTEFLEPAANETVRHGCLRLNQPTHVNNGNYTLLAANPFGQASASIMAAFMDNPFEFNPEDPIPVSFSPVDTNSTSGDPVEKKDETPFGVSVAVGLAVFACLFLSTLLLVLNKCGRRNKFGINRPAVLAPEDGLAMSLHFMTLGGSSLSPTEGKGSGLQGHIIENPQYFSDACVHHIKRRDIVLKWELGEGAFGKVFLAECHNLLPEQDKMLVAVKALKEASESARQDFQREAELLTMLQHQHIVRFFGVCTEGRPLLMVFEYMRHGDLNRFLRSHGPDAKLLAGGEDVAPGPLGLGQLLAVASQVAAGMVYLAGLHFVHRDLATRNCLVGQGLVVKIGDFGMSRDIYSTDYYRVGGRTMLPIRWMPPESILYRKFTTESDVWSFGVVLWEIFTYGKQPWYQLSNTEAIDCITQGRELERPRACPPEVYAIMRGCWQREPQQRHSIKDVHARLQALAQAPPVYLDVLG
Description: as §1, §2, §3, §4, §5, §6

MAPKAPK2 (h) = MAPKAPK2 (h) (Homo sapiens (Human), UniProt P49137); assay: Kinase selectivity panel: MAPKAPK2 (h); details: 10 μM in duplicate, read-out: % inhibition of control values
Description: as §1, §2, §3, §4, §5, §6

Src kinase (h) = Src kinase (h) (Homo sapiens (Human), UniProt P12931); assay: Kinase selectivity panel: Src kinase (h); details: 10 μM in duplicate, read-out: % inhibition of control values
Chain of Src kinase (h) (P12931 whole entry, looked up): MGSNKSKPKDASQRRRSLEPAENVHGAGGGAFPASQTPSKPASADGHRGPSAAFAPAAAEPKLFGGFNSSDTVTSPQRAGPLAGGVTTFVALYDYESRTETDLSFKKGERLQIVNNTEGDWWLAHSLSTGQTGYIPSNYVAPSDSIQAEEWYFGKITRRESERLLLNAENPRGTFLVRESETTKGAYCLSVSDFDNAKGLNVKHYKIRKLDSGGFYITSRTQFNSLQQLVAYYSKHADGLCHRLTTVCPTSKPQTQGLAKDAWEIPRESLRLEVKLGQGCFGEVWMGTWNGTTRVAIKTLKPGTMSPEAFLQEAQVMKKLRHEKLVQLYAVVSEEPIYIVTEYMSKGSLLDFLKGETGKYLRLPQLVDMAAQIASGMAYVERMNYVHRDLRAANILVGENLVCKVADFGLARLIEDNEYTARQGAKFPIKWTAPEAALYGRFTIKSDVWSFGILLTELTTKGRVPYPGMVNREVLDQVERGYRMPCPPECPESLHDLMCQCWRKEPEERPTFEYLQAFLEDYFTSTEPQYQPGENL
Description: as §1, §2, §3, §4, §5, §6

DCAMKL1 (h) = DCAMKL1 (h) (Homo sapiens (Human), UniProt O15075); assay: Kinase selectivity panel: DCAMKL1 (h); details: 10 μM in duplicate, read-out: % inhibition of control values
Description: as §1, §2, §3, §4, §5, §6

Akt1/PKBalpha (h) = Akt1/PKBalpha (h) (Homo sapiens (Human), UniProt P31749); assay: Kinase selectivity panel: Akt1/PKBalpha (h); details: 10 μM in duplicate, read-out: % inhibition of control values
Description: as §1, §2, §3, §4, §5, §6

JAK1 (h) = JAK1 (h) (Homo sapiens (Human), UniProt P23458); assay: Kinase selectivity panel: JAK1 (h); details: 10 μM in duplicate, read-out: % inhibition of control values
Description: as §1, §2, §3, §4, §5, §6

Fyn kinase (h) = Fyn kinase (h) (Homo sapiens (Human), UniProt P06241); assay: Kinase selectivity panel: Fyn kinase (h); details: 10 μM in duplicate, read-out: % inhibition of control values
Chain of Fyn kinase (h) (P06241 whole entry): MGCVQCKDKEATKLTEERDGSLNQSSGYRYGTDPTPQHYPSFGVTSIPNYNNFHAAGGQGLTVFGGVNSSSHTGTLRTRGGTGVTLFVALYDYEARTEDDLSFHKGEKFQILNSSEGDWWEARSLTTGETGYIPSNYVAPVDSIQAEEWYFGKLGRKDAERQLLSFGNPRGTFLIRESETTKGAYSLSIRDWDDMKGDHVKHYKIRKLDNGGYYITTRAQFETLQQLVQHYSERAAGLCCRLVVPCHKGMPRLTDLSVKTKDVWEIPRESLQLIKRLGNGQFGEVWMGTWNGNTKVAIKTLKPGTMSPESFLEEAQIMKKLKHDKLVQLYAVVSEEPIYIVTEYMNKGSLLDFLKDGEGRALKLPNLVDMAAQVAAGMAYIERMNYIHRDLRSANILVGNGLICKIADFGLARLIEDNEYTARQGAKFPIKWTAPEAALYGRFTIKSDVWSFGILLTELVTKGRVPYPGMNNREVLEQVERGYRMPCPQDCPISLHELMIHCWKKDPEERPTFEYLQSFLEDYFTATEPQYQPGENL
Description: as §1, §2, §3, §4, §5, §6

MNK2 (h) = MNK2 (h) (Homo sapiens (Human), UniProt Q9HBH9); assay: Kinase selectivity panel: MNK2 (h); details: 10 μM in duplicate, read-out: % inhibition of control values
Description: as §1, §2, §3, §4, §5, §6

IRAK4 (h) = IRAK4 (h) (Homo sapiens (Human), UniProt Q9NWZ3); assay: Kinase selectivity panel: IRAK4 (h); details: 10 μM in duplicate, read-out: % inhibition of control values
Description: as §1, §2, §3, §4, §5, §6

GSK3beta (h) = GSK3beta (h) (Homo sapiens (Human), UniProt P49841); assay: Kinase selectivity panel: GSK3beta (h); details: GSK3beta (h); 10 μM in duplicate; read-out: % inhibition of control values
Description: as §1, §2, §3, §4, §6

CDK5/p35 (h) = CDK5/p35 (h) (Homo sapiens (Human), UniProt Q00535); assay: Kinase selectivity panel: CDK5/p35 (h); details: 10 μM in duplicate, read-out: % inhibition of control values
Description: as §1, §2, §3, §4, §5, §6

ERK2 (h) (P42mapk) = ERK2 (h) (P42mapk) (Homo sapiens (Human), UniProt P28482); assay: Kinase selectivity panel: ERK2 (h) (P42mapk); details: 10 μM in duplicate, read-out: % inhibition of control values
Description: as §1, §2, §3, §4, §5, §6

IGF1R kinase (h) = IGF1R kinase (h) (Homo sapiens (Human), UniProt P08069); assay: Kinase selectivity panel: IGF1R kinase (h); details: 10 μM in duplicate, read-out: % inhibition of control values
Description: as §1, §2, §3, §4, §5, §6

human GSK-3β = human GSK-3β (Homo sapiens (Human), UniProt P49841); assay: Activity on human GSK-3β, LANCE substrate phosphorylation assay; details: 10 μM, in duplicate, first screening assay
Description: Activity on human GSK-3β was assessed using the following methods (according to Meijer et al., Chem. Biol., 2003-10:1255-1266).
In a first screening assay, compounds were tested in duplicate at a concentration of 10 μM.
Human recombinant enzyme GSK-3β was incubated for 90 minutes at 22° C. in the presence of compounds or vehicle in a reaction buffer containing ATP plus 100 nM unphosphorylated specific substrate peptide (Ulight-[…] K-amide). Substrate phosphorylation was measured by LANCE technology (PerkinElmer, Conn., USA).
In a second assay, the same compounds were assayed at five concentrations ranging from 100 μM to 10 nM with ten-fold dilutions in duplicate.
The IC50 values (concentration causing a half maximal inhibition of control specific activity), reported in table 4, were determined by non-linear regression analysis of the inhibition curves generated with mean replicate values using Hill equation curve fitting.

PKCalpha (h) = PKCalpha (h) (Homo sapiens (Human), UniProt P17252); assay: Kinase selectivity panel: PKCalpha (h); details: 10 μM in duplicate, read-out: % inhibition of control values
Description: as §1, §2, §3, §4, §5, §6

Abl kinase (h) = Abl kinase (h) (Homo sapiens (Human), UniProt P00519); assay: Kinase selectivity panel: Abl kinase (h); details: 10 μM in duplicate, read-out: % inhibition of control values
Description: as §1, §2, §3, §4, §5, §6

Ret kinase (h) = Ret kinase (h) (Homo sapiens (Human), UniProt P07949); assay: Kinase selectivity panel: Ret kinase (h); details: 10 μM in duplicate, read-out: % inhibition of control values
Chain of Ret kinase (h) (P07949 29-1114): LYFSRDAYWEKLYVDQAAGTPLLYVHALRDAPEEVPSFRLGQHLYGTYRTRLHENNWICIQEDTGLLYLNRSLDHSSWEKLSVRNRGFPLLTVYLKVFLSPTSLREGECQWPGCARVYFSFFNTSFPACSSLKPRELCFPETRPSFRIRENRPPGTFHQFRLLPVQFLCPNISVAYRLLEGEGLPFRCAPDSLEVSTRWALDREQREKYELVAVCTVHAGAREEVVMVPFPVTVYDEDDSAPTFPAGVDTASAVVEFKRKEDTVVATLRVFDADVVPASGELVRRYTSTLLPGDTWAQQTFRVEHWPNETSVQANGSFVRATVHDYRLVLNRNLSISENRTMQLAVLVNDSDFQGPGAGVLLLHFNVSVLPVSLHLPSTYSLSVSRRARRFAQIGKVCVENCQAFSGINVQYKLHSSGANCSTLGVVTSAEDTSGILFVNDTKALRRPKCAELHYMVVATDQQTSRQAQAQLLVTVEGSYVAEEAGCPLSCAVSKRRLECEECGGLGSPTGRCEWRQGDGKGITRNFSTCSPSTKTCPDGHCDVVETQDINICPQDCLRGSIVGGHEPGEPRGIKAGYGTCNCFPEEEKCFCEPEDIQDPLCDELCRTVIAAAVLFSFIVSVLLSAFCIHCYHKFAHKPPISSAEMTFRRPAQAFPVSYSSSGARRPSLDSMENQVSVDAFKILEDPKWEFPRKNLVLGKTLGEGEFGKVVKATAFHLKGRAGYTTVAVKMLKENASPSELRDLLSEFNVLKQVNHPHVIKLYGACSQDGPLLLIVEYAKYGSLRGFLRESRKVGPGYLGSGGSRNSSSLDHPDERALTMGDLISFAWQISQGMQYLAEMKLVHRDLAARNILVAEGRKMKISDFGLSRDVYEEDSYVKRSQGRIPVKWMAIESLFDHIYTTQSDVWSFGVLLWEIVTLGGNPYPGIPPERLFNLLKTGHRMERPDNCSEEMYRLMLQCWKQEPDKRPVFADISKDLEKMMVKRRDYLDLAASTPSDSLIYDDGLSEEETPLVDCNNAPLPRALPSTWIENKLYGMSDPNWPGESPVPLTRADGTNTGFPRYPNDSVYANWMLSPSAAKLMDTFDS
Description: as §1, §2, §3, §4, §5, §6

EphA4 kinase (h) = EphA4 kinase (h) (Homo sapiens (Human), UniProt P54764); assay: Kinase selectivity panel: EphA4 kinase (h); details: 10 μM in duplicate, read-out: % inhibition of control values
Description: as §1, §2, §3, §4, §5, §6

p38delta kinase (h) = p38delta kinase (h) (Homo sapiens (Human), UniProt O15264); assay: Kinase selectivity panel: p38delta kinase (h); details: 10 μM in duplicate, read-out: % inhibition of control values
Chain of p38delta kinase (h) (O15264 whole entry): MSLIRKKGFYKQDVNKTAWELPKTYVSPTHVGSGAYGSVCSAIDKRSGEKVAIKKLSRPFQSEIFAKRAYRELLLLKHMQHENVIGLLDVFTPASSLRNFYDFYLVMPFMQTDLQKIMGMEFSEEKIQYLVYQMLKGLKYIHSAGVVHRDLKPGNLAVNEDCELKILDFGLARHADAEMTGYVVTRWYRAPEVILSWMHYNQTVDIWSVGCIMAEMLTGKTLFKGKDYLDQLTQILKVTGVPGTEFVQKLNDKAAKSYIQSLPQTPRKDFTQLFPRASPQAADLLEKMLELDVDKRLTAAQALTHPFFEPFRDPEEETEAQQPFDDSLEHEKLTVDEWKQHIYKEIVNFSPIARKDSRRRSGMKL
Description: as §1, §2, §3, §4, §5, §6

Pim2 kinase (h) = Pim2 kinase (h) (Homo sapiens (Human), UniProt Q9P1W9); assay: Kinase selectivity panel: Pim2 kinase (h); details: 10 μM in duplicate, read-out: % inhibition of control values
Chain of Pim2 kinase (h) (Q9P1W9 whole entry): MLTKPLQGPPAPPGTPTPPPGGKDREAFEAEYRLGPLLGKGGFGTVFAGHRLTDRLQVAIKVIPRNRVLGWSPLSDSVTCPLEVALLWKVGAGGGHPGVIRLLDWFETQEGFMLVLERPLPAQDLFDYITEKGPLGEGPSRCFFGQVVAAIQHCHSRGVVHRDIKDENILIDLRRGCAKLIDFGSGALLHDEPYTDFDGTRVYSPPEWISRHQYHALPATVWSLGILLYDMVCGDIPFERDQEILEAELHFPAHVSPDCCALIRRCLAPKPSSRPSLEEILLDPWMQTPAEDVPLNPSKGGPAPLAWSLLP
Description: as §1, §2, §3, §4, §5, §6

DLK1 (h) (MAP3K12) = DLK1 (h) (MAP3K12) (Homo sapiens (Human), UniProt Q12852); assay: Kinase selectivity panel: DLK1 (h) (MAP3K12); details: 10 μM in duplicate, read-out: % inhibition of control values
Description: as §1, §2, §3, §4, §5, §6

CDK2 (h) (cycA) = CDK2 (h) (cycA) (Homo sapiens (Human), UniProt P24941); assay: Kinase selectivity panel: CDK2 (h) (cycA); details: 10 μM in duplicate, read-out: % inhibition of control values
Description: as §1, §2, §3, §4, §5, §6

Row | Compound | inhibition at 10 µM (c-Met kinase (h)) | inhibition at 10 µM (FGFR1 kinase (h)) | inhibition at 10 µM (IRK (h) (InsR)) | inhibition at 10 µM (EphB4 kinase (h)) | inhibition at 10 µM (HGK (h) (MAP4K4)) | inhibition at 10 µM (CK1alpha (h)) | inhibition at 10 µM (TRKA (h)) | inhibition at 10 µM (MAPKAPK2 (h)) | inhibition at 10 µM (Src kinase (h)) | inhibition at 10 µM (DCAMKL1 (h)) | inhibition at 10 µM (Akt1/PKBalpha (h)) | inhibition at 10 µM (JAK1 (h)) | inhibition at 10 µM (Fyn kinase (h)) | inhibition at 10 µM (MNK2 (h)) | inhibition at 10 µM (IRAK4 (h)) | inhibition at 10 µM (CDK5/p35 (h)) | inhibition at 10 µM (ERK2 (h) (P42mapk)) | inhibition at 10 µM (IGF1R kinase (h)) | inhibition at 10 µM (PKCalpha (h)) | inhibition at 10 µM (Abl kinase (h)) | other results
1 | COc1ccc2[nH]nc(C(=O)NCC3CCN(CCC(=O)O)CC3)c2c1 [Compound 3] | 0% | 0% | 0% | 0% | 3% | 0% | 0% | 0% | 0% | 0% | 0% | 4% | 0% | 3% | 0% | 9% | 34% | 0% | 5% | 0% | inhibition at 10 µM (GSK3beta (h)): 89%; inhibition at 10 µM (human GSK-3β): 94%; inhibition at 10 µM (Ret kinase (h)): 0%; inhibition at 10 µM (EphA4 kinase (h)): 0%; inhibition at 10 µM (p38delta kinase (h)): 0%; inhibition at 10 µM (Pim2 kinase (h)): 0%; inhibition at 10 µM (DLK1 (h) (MAP3K12)): 0%; inhibition at 10 µM (CDK2 (h) (cycA)): 21%
2 | COCCN1CCC(CNC(=O)c2n[nH]c3ccc(-c4cccc(F)c4F)cc23)CC1 [Compound 8, 5-(2,3-difluorophenyl)-N-{[1-(2-methoxyethyl)piperidin-4-yl]methyl}-1H-indazole-3-carboxamide] | 7% | 8% | 9% | 0% | 72% | 6% | 14% | 17% | 0% | 0% | 0% | 7% | 0% | 4% | 0% | 77% | 74% | 3% | 19% | 0% | inhibition at 10 µM (Ret kinase (h)): 0%; inhibition at 10 µM (EphA4 kinase (h)): 0%; inhibition at 10 µM (p38delta kinase (h)): 18%; inhibition at 10 µM (Pim2 kinase (h)): 0%; inhibition at 10 µM (DLK1 (h) (MAP3K12)): 58%; inhibition at 10 µM (CDK2 (h) (cycA)): 92%
